In patent US5696117A, “Benzoxazine antimicrobial agents” (Ortho Pharmaceutical Corporation, priority 1995, dated 1997) one finds IC50 data, which are given here for 14 compounds.

The test concerns the target T1, Kinase A and SpoOF (Bacillus subtilis, UniProt P16497).
T1 construct: made in house; host or cells: recombinant E. coli (overexpression)
T1 sequence (P16497 1-606): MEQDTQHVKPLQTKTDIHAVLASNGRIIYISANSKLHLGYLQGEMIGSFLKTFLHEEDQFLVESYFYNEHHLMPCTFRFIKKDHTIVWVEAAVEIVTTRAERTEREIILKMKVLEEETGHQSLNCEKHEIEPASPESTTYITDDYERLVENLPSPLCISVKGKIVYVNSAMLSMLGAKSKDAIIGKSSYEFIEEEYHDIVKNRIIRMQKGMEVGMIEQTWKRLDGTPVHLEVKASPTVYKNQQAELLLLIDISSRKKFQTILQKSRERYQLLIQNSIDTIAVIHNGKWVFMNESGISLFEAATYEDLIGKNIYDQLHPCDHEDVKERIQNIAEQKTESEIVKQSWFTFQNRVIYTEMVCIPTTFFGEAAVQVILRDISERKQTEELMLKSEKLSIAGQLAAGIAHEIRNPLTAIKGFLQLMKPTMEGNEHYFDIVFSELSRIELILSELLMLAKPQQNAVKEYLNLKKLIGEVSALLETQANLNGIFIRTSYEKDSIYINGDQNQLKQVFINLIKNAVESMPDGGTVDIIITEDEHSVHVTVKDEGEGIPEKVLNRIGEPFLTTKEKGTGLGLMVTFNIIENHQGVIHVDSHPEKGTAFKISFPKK
The test is described as follows: Autophosphorylation of Kinase A and Transphosphorylation of SpoOF Assay (HPK in vitro assay). In kind it is biochemical. As to conditions: inhibition of KinA autophosphorylation / SpoOF transphosphorylation, inhibitor concentrations from 1 to 500 μM. How it is done: 1. Autophosphorylation of Kinase A and Transphosphorylation of SpoOF Assay
To study the effect of the compounds of the present invention on the signal transduction process in bacteria, the inhibiting effect of the compounds on the sporulation operon proteins Kinase A and SpoOF was examined. Specifically, the inhibition of autophosphorylation of Kinase A and the transphosphorylation of SpoOF was determined in the following assays. The SpoOF response regulator is the primary substrate for phosphorylation by the protein kinase, Kin A, involved in the sporulation process in bacteria. See D. Burbulys, K. A. Trach, J. A. Hoch, Cell, 64, 545-552 (1991). SpoOF and KinA were prepared from recombinant E. coli overexpressing the proteins (J. Cavanagh et al, Amino Acids, 6, 131-140 (1994) and references therein).
The following stock reagents were either prepared and used promptly or stored at the indicated temperature:
8× Salts: 2M KCl (5 mL), 1M MgCl2 (800 mL), 1M CaCl2 (100 mL), 10 mg/mL phenylmethylsulfonyl fluoride (200 mL), 1M dithioreitol (50 mL), 0.25M Na2 EDTA (32 mL) and H2 O 3.82 mL (-20° C.)
5× Loading Dye: 0.5M TRIS-HCl-pH 6.8 (7.5 mL), 10% SDS (2 mL) 0.1% bromophenol blue (0.5 mL), 100% glycerol (3 mL) and 12.5M 2-mercaptoethanol (0.3 mL)
1-1.3 mg/mL KinA:15 mM TRIS-HCl, pH 8.0, 6 mM KCl; 4 mM 2-mercaptoethanol; 40% glycerol (-20° C.)
1 mg/mL SpoOF: 17.5 mM TRIS-HCl, pH 8.0; 0.7 mM KCl; 0.7 mM MgCl2; 0.7 mM CaCl2; 5mM 2-mercaptoethanol; 30% Glycerol (-20° C.)
5% Stacking Gel: 40% 29:1 acrylamide:bis acrylamide (1.25 mL), 0.5M TRIS-HCl, pH 6.8 (2.5 mL), 10% SDS (0.1 mL), D-H2 O (6.15 mL) 10% ammonium persulfate (100 mL) and TEMED (25 mL)
SDS Running Buffer: TRIS-BASE (3.02 g), glycine (14.4 g) SDS (1 g), D-H2 O (to 1 L)
The reaction mixture was prepared from 8× Salts (87 μL), 1M TRIS, pH 8 (118 μL), 50% glycerol (63 μL), SpoOF (14.1 μL) and KinA (7.0 μL). Microcentrifuge tubes were charged with the reaction mixture (18.5 μL) and a 1.0 mM solution of the test compound in 5% DMSO (18.5 μL), and incubated for 15 min on ice. 100 mM ATP solution (3.0 μl, containing 625 μCi [^32 P]ATP) was added, and the mixture left for 10 minutes at room temperature. The reaction was quenched with 5× loading dye (10 μL per tube) and the samples were loaded on a prepared 5% Stacking Gel, or stored on dry ice until ready for use. The prepared wells were filled with SDS Running Buffer, samples were loaded into the wells, and 80 volts were applied to the gel until the dye front reached the bottom of the stacking gel. The voltage was then increased to 250 volts until electrophoresis was complete. Radioactive bands in the gel corresponding to phosphorylated KinA and SpoOF were imaged and quantitated with a phosphoimager.
If either enzyme was inhibited (as evidenced by the absence of labelled protein in the developed gel), an IC50 was calculated by running the assay with a range of inhibitor concentrations from 1 to 500 μM. After electrophoresis of the reaction mixtures, percent inhibition was determined by measuring the concentration of radioactive phosphorus with a phosphoimager and calculating the values using a software program (BioRad Molecular Analyst). IC50 values of less than 500 μM are considered active.
For “3,4-Dihydro-4-(2,4-dichlorobenzyl)-2-{2-[4-(2-guanidinoethyl)phenoxy]ethyl}-3-oxo-2H-1,4-benzoxazine [Compound 141]”, the IC50 is 37 µM.

On to `CC(C)(C)OC(=O)NCc1ccc(OCCC2Oc3ccccc3N(Cc3cccc(Cl)c3)C2=O)cc1` (centres unmarked) [Compound 1, 2-[2-[4-(t-Butoxycarbonylaminomethyl)phenoxy]ethyl]-4-(3-chlorobenzyl)-3,4-dihydro-3-oxo-2H-1,4-benzoxazine], for which the IC50 was determined as 253 µM.

In the case of `CC(C)(C)OC(=O)NCc1ccc(OCCC2Oc3ccccc3N(Cc3ccc(Cl)cc3)C2=O)cc1` (centres unmarked) [Compound 3, 2-[2-[4-(t-Butoxycarbonylaminomethyl)phenoxy]ethyl]-4-(4-chlorobenzyl)-3,4-dihydro-3-oxo-2H-1,4-benzoxazine], the IC50 turned out to be 283 µM.

`CC(C)(C)OC(=O)NCCc1cccc(OCCC2Oc3ccccc3N(Cc3ccc(Cl)cc3)C2=O)c1` (centres unmarked) [Compound 7, 2-{2-[3-(2-t-Butoxycarbonylaminoethyl)phenoxy]ethyl}-4-(4-chlorobenzyl)-3,4-dihydro-3-oxo-2H-1,4-benzoxazine]: the IC50 is 308 µM. This IC50 and that of the compound before are within 1.5-fold of each other.

For the compound `NCc1cccc(OCCC2Oc3ccccc3N(Cc3ccc(Cl)cc3)C2=O)c1` (centres unmarked) [Compound 10, 2-[2-[3-(Aminomethyl)phenoxy]ethyl]-4-(4-chlorobenzyl)-3,4-dihydro-3-oxo-2H-1,4-benzoxazine], the concentration for half-maximal inhibition (IC50) is listed as 122 µM.

Compound `NCc1cccc(OCCC2Oc3ccccc3N(Cc3ccccc3Cl)C2=O)c1` (centres unmarked) [Compound 12, 2-[2-[3-(Aminomethyl)phenoxy]ethyl]-4-(2-chlorobenzyl)-3,4-dihydro-3-oxo-2H-1,4-benzoxazine] had an IC50 of 140 µM.

`CC(C)(C)OC(=O)NCc1ccc(OCCC2Oc3ccccc3N(Cc3ccccc3Cl)C2=O)cc1` (centres unmarked) [Compound 13, 2-[2-[4-(t-Butoxycarbonylaminomethyl)phenoxy]ethyl]-4-(2-chlorobenzyl)-3,4-dihydro-3-oxo-2H-1,4-benzoxazine] came in with a half-inhibitory concentration (IC50) of 272 µM. This IC50 is about 1.9-fold higher than that of the compound before.

The compound `NCc1ccc(OCCC2Oc3ccccc3N(Cc3ccccc3Cl)C2=O)cc1` (centres unmarked) [Compound 14, 2-[2-[4-(Aminomethyl)phenoxy]ethyl]-4-(2-chlorobenzyl)-3,4-dihydro-3-oxo-2H-1,4-benzoxazine] displayed an IC50 of 172 µM. Compared with the last compound, the IC50 is about 1.6-fold lower.

For the compound `CC(C)(C)OC(=O)NCCc1cccc(OCCC2Oc3ccccc3N(Cc3ccccc3Cl)C2=O)c1` (centres unmarked) [Compound 15, 2-[2-[3-(2-(t-Butoxycarbonylamino)ethyl)phenoxy]ethyl]-4-(2-chlorobenzyl)-3,4-dihydro-3-oxo-2H-1,4-benzoxazine], the IC50 turned out to be 165 µM.

Turning to `CC(C)(C)OC(=O)NCCc1ccc(OCCC2Oc3ccccc3N(Cc3ccccc3Cl)C2=O)cc1` (centres unmarked) [Compound 17, 2-[2-[4-(2-(t-Butoxycarbonylamino)ethyl)phenoxy]ethyl]-4-(2-chlorobenzyl)-3,4-dihydro-3-oxo-2H-1,4-benzoxazine], the half-maximal inhibitory concentration (IC50) is 352 µM. This IC50 is about 2.1-fold higher than that of the compound before.

Compound `NCCc1ccc(OCCC2Oc3ccccc3N(Cc3ccccc3Cl)C2=O)cc1` (centres unmarked) [Compound 18, 2-[2-[4-(2-Aminoethyl)phenoxy]ethyl]-4-(2-chlorobenzyl)-3,4-dihydro-3-oxo-2H-1,4-benzoxazine] came in with a half-inhibitory concentration (IC50) of 264 µM. This IC50 and that of the compound before are within 1.5-fold of each other.

Turning to `N=C(N)NCCc1ccc(OCCC2Oc3ccccc3N(Cc3ccccc3Cl)C2=O)cc1` (centres unmarked) [Compound 20, 4-(2-Chlorobenzyl)-2-[2-[4-(2-guanidinoethyl)phenoxy]ethyl]-3,4-dihydro-3-oxo-2H-1,4-benzoxazine], the IC50 turned out to be 16 µM. Compared with the last compound, the IC50 is about 16-fold lower.

In turn, `N=C(N)NCc1ccc(OCCC2Oc3ccccc3N(Cc3ccc(Cl)cc3)C2=O)cc1` (centres unmarked) [Compound 21, 4-(4-Chlorobenzyl)-2-[2-[4-(guanidinomethyl)phenoxy]ethyl]-3,4-dihydro-3-oxo-2H-1,4-benzoxazine] gave a 50% inhibitory concentration (IC50) of 26 µM.

As for `Cc1ccc2c(c1)N(Cc1cccc(Cl)c1)C(=O)C(CCOc1ccc(CCNC(=N)N)cc1)O2` (centres unmarked) [Compound 24, 4-(3-Chlorobenzyl)-3,4-dihydro-2-[2-[4-(2-guanidinoethyl)phenoxy]ethyl]-6-methyl-3-oxo-2H-1,4-benzoxazine], the 50% inhibitory concentration (IC50) was 56 µM.

A word on the IC50: it is the concentration needed to halve the response being measured. Low readings indicate greater potency, high ones weaker potency.
